Measurements: patent US8476265B2, “Compounds-801” (AstraZeneca AB, priority 2010, dated 2013)

How the values were obtained:
Adrenergic β2 = biological target: T1, Adrenergic β2 (Homo sapiens, UniProt P07550); test: Adrenergic β2 mediated cAMP production in H292 cells, single concentration 1 μM; format: cell-based; settings: NCI-H292, 1 μM compound, cAMP as percentage of the maximum response generated by 1E-07M formoterol, read-out: β2 % effect @1 uM
T1 construct: Adherent H292 cells are removed from tissue culture flasks by treatment with Accutase™ cell detachment solution; endogenous in cells; host or cells: H292 cells
Procedure, shortened: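 H292 cells pretreated with rolipram (300 μM final) 10 min, then compound at 1 μM final, 1% DMSO, 60 min at room temperature in HBSS/10 mM HEPES pH 7.4/5 mM glucose. Lysate cAMP quantified by AlphaScreen against a standard curve, as % of maximal response to 1E-07M formoterol.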

[1] = biological target: T2, human muscarinic acetylcholine M3 receptor (Homo sapiens, UniProt P20309); test: Muscarinic 3 receptor binding assay ([3H]NMS competition, SPA), single concentration 1 μM; settings: 1 μM compound; % inhibition specific [3H]-NMS binding
T2 construct: expressed in transfected cells; host or cells: CHO-K1 (Chinese Hamster Ovary) cell membranes
Procedure, shortened: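 CHO-K1 membranes expressing human M3 on SPA beads, competition with 0.1 nM [3H]NMS (quarter Kd) in 20 mM HEPES pH 7.4, 5 mM MgCl2, 0.1% BSA, 1% DMSO; compound at 1 μM. 16 h at room temperature. Value is % inhibition of specific binding, non-specific defined with 1 μM atropine.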

T1 sequence (P07550 whole entry): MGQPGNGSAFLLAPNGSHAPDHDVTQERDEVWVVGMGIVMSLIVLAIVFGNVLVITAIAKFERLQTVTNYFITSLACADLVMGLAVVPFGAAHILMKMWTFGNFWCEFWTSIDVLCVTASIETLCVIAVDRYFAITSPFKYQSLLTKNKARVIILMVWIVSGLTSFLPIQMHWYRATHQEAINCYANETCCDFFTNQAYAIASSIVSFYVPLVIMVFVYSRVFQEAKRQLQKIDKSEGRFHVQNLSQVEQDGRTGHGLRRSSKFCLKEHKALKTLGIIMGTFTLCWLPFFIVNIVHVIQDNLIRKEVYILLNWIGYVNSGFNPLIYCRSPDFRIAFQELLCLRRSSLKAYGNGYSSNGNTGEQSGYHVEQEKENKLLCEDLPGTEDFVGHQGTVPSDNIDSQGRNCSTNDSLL
T2 sequence (P20309 whole entry): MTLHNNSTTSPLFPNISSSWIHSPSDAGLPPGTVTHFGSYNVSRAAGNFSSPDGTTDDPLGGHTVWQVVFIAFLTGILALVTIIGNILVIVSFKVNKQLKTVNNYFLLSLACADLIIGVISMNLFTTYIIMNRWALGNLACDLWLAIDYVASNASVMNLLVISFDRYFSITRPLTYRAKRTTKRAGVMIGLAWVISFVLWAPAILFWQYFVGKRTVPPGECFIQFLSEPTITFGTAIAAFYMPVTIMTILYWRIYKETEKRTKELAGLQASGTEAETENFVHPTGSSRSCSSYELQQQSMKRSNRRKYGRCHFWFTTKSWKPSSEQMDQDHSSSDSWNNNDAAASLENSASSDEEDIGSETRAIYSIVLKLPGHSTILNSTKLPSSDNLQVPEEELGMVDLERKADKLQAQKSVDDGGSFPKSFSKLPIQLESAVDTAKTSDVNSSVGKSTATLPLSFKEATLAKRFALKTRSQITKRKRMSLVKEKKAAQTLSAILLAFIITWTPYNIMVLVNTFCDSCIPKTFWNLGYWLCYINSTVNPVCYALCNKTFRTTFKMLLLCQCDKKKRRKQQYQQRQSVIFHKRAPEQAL

## Cc1cc(C)n2nc(C(=O)N3CCOC4(CCN(Cc5cccc(CCOCCC(=O)N(CCNCCc6ccc(O)c7c6OCC(=O)N7)C6CCCCC6)c5)CC4)C3)cc2n1 [Example 142, N-Cyclohexyl-3-(3-((4-(5,7-dimethylpyrazolo[1,5-a]pyrimidine-2-carbonyl)-1-oxa-4,9-diazaspiro[5.5]undecan-9-yl)methyl)phenethoxy)-N-(2-(2-(5-hydroxy-3-oxo-3,4-dihydro-2H-benzo[b][1,4]oxazin-8-yl)ethylamino)ethyl)propanamide]
Adrenergic β2
  percent of formoterol maximum response at 1 µM: 83%
[1]
  inhibition at 1 µM: 100%

## O=C1COc2c(CCNCCN(C(=O)CCOCCc3cccc(CN4CCC5(CC4)CN(C(=O)COCc4nc6ccccc6s4)CCO5)c3)C3CCCCC3)ccc(O)c2N1 [Example 126, 3-(3-((4-(2-(Benzo[d]thiazol-2-ylmethoxy)acetyl)-1-oxa-4,9-diazaspiro[5.5]undecan-9-yl)methyl)phenethoxy)-N-cyclohexyl-N-(2-(2-(5-hydroxy-3-oxo-3,4-dihydro-2H-benzo[b][1,4]oxazin-8-yl)ethylamino)ethyl)propanamide]
Adrenergic β2
  percent of formoterol maximum response at 1 µM: 103%
[1]
  inhibition at 1 µM: 101%

## O=C1COc2c(CCNCCN(C(=O)CCOCCc3cccc(CN4CCC5(CC4)CN(C(=O)c4cc(Br)c[nH]4)CCO5)c3)C3CCCCC3)ccc(O)c2N1 [Example 132, 3-(3-((4-(4-Bromo-1H-pyrrole-2-carbonyl)-1-oxa-4,9-diazaspiro[5.5]undecan-9-yl)methyl)phenethoxy)-N-cyclohexyl-N-(2-(2-(5-hydroxy-3-oxo-3,4-dihydro-2H-benzo[b][1,4]oxazin-8-yl)ethylamino)ethyl)propanamide]
Adrenergic β2
  percent of formoterol maximum response at 1 µM: 96%
[1]
  inhibition at 1 µM: 101%

## O=C1COc2c(CCNCCN(C(=O)CCOCCc3cccc(CN4CCC5(CC4)CN(C(=O)[C@@H](O)C4CCCCC4)CCO5)c3)C3CCCCC3)ccc(O)c2N1 [Example 129, (S)-N-Cyclohexyl-3-(3-((4-(2-cyclohexyl-2-hydroxyacetyl)-1-oxa-4,9-diazaspiro[5.5]undecan-9-yl)methyl)phenethoxy)-N-(2-(2-(5-hydroxy-3-oxo-3,4-dihydro-2H-benzo[b][1,4]oxazin-8-yl)ethylamino)ethyl)propanamide]
Adrenergic β2
  percent of formoterol maximum response at 1 µM: 110%
[1]
  inhibition at 1 µM: 99%

## Cc1ccccc1OCC(=O)N1CCOC2(CCN(Cc3cccc(CCOCCC(=O)N(CCNCCc4ccc(O)c5c4OCC(=O)N5)C4CCCCC4)c3)CC2)C1 [Example 127, N-Cyclohexyl-N-(2-(2-(5-hydroxy-3-oxo-3,4-dihydro-2H-benzo[b][1,4]oxazin-8-yl)ethylamino)ethyl)-3-(3-((4-(2-(o-tolyloxy)acetyl)-1-oxa-4,9-diazaspiro[5.5]undecan-9-yl)methyl)phenethoxy)propanamide]
Adrenergic β2
  percent of formoterol maximum response at 1 µM: 110%
[1]
  inhibition at 1 µM: 97%

## O=C1COc2c(CCNCCN(C(=O)CCOCCc3cccc(CN4CCC5(CC4)CN(C(=O)C(O)C(F)(F)F)CCO5)c3)C3CCCCC3)ccc(O)c2N1 (stereo not shown) [Example 152, N-Cyclohexyl-N-(2-(2-(5-hydroxy-3-oxo-3,4-dihydro-2H-benzo[b][1,4]oxazin-8-yl)ethylamino)ethyl)-3-(3-((4-(3,3,3-trifluoro-2-hydroxypropanoyl)-1-oxa-4,9-diazaspiro[5.5]undecan-9-yl)methyl)phenethoxy)propanamide]
Adrenergic β2
  percent of formoterol maximum response at 1 µM: 112%
[1]
  inhibition at 1 µM: 100%

## O=C1COc2c(CCNCCN(C(=O)CCOCCc3cccc(CN4CCC5(CC4)CN(C(=O)CC4C[C@@H]6CC[C@H]4C6)CCO5)c3)C3CCCCC3)ccc(O)c2N1 (stereo partly drawn) [Example 131, 3-(3-((4-(2-((1S,4R)-Bicyclo[2.2.1]heptan-2-yl)acetyl)-1-oxa-4,9-diazaspiro[5.5]undecan-9-yl)methyl)phenethoxy)-N-cyclohexyl-N-(2-(2-(5-hydroxy-3-oxo-3,4-dihydro-2H-benzo[b][1,4]oxazin-8-yl)ethylamino)ethyl)propanamide]
Adrenergic β2
  percent of formoterol maximum response at 1 µM: 97%
[1]
  inhibition at 1 µM: 99%

## O=C1COc2c(CCNCCN(C(=O)CCOCCc3cccc(CN4CCC5(CC4)CN(C(=O)c4ccc(F)cc4F)CCO5)c3)C3CCCCC3)ccc(O)c2N1 [Example 162, N-Cyclohexyl-3-(3-((4-(2,4-difluorobenzoyl)-1-oxa-4,9-diazaspiro[5.5]undecan-9-yl)methyl)phenethoxy)-N-(2-(2-(5-hydroxy-3-oxo-3,4-dihydro-2H-benzo[b][1,4]oxazin-8-yl)ethylamino)ethyl)propanamide]
Adrenergic β2
  percent of formoterol maximum response at 1 µM: 95%
[1]
  inhibition at 1 µM: 100%

## Cc1ccc2nc(C(=O)N3CCOC4(CCN(Cc5cccc(CCOCCC(=O)N(CCNCCc6ccc(O)c7c6OCC(=O)N7)C6CCCCC6)c5)CC4)C3)cn2c1 [Example 172, N-Cyclohexyl-N-(2-(2-(5-hydroxy-3-oxo-3,4-dihydro-2H-benzo[b][1,4]oxazin-8-yl)ethylamino)ethyl)-3-(3-((4-(6-methylimidazo[1,2-a]pyridine-2-carbonyl)-1-oxa-4,9-diazaspiro[5.5]undecan-9-yl)methyl)phenethoxy)propanamide]
Adrenergic β2
  percent of formoterol maximum response at 1 µM: 94%
[1]
  inhibition at 1 µM: 91%

## Cc1nc2cc(C(=O)N3CCOC4(CCN(Cc5cccc(CCOCCC(=O)N(CCNCCc6ccc(O)c7c6OCC(=O)N7)C6CCCCC6)c5)CC4)C3)ccc2[nH]1 [Example 117, N-Cyclohexyl-N-(2-(2-(5-hydroxy-3-oxo-3,4-dihydro-2H-benzo[b][1,4]oxazin-8-yl)ethylamino)ethyl)-3-(3-((4-(2-methyl-1H-benzo[d]imidazole-5-carbonyl)-1-oxa-4,9-diazaspiro[5.5]undecan-9-yl)methyl)phenethoxy)propanamide]
Adrenergic β2
  percent of formoterol maximum response at 1 µM: 90%
[1]
  inhibition at 1 µM: 99%

## Cc1ccccc1C(=O)N1CCOC2(CCN(Cc3cccc(CCOCCC(=O)N(CCNCCc4ccc(O)c5c4OCC(=O)N5)C4CCCCC4)c3)CC2)C1 [Example 158, N-Cyclohexyl-N-(2-(2-(5-hydroxy-3-oxo-3,4-dihydro-2H-benzo[b][1,4]oxazin-8-yl)ethylamino)ethyl)-3-(3-((4-(2-methylbenzoyl)-1-oxa-4,9-diazaspiro[5.5]undecan-9-yl)methyl)phenethoxy)propanamide]
Adrenergic β2
  percent of formoterol maximum response at 1 µM: 94%
[1]
  inhibition at 1 µM: 98%

## O=C1COc2c(CCNCCN(C(=O)CCOCCc3cccc(CN4CCC5(CC4)CN(C(=O)CCCOCc4ccccc4)CCO5)c3)C3CCCCC3)ccc(O)c2N1 [Example 151, 3-(3-((4-(4-(Benzyloxy)butanoyl)-1-oxa-4,9-diazaspiro[5.5]undecan-9-yl)methyl)phenethoxy)-N-cyclohexyl-N-(2-(2-(5-hydroxy-3-oxo-3,4-dihydro-2H-benzo[b][1,4]oxazin-8-yl)ethylamino)ethyl)propanamide]
Adrenergic β2
  percent of formoterol maximum response at 1 µM: 113%
[1]
  inhibition at 1 µM: 97%

## O=C1COc2c(CCNCCN(C(=O)CCOCCc3cccc(CN4CCC5(CC4)CN(C(=O)Cc4noc6ccccc46)CCO5)c3)C3CCCCC3)ccc(O)c2N1 [Example 124, 3-(3-((4-(2-(Benzo[d]isoxazol-3-yl)acetyl)-1-oxa-4,9-diazaspiro[5.5]undecan-9-yl)methyl)phenethoxy)-N-cyclohexyl-N-(2-(2-(5-hydroxy-3-oxo-3,4-dihydro-2H-benzo[b][1,4]oxazin-8-yl)ethylamino)ethyl)propanamide]
Adrenergic β2
  percent of formoterol maximum response at 1 µM: 101%
[1]
  inhibition at 1 µM: 100%

## CCCC(C)C(=O)N1CCOC2(CCN(Cc3cccc(CCOCCC(=O)N(CCNCCc4ccc(O)c5c4OCC(=O)N5)C4CCCCC4)c3)CC2)C1 (stereo not shown) [Example 160, N-Cyclohexyl-N-(2-(2-(5-hydroxy-3-oxo-3,4-dihydro-2H-benzo[b][1,4]oxazin-8-yl)ethylamino)ethyl)-3-(3-((4-(2-methylpentanoyl)-1-oxa-4,9-diazaspiro[5.5]undecan-9-yl)methyl)phenethoxy)propanamide]
Adrenergic β2
  percent of formoterol maximum response at 1 µM: 79%
[1]
  inhibition at 1 µM: 99%

## O=C1COc2c(CCNCCN(C(=O)CCOCCc3cccc(CN4CCC5(CC4)CN(C(=O)c4cccs4)CCO5)c3)C3CCCCC3)ccc(O)c2N1 [Example 153, N-Cyclohexyl-N-(2-(2-(5-hydroxy-3-oxo-3,4-dihydro-2H-benzo[b][1,4]oxazin-8-yl)ethylamino)ethyl)-3-(3-((4-(thiophene-2-carbonyl)-1-oxa-4,9-diazaspiro[5.5]undecan-9-yl)methyl)phenethoxy)propanamide]
Adrenergic β2
  percent of formoterol maximum response at 1 µM: 98%
[1]
  inhibition at 1 µM: 101%

## O=C1COc2c(CCNCCN(C(=O)CCOCCc3cccc(CN4CCC5(CC4)CN(C(=O)c4[nH]nc6c4CCCC6)CCO5)c3)C3CCCCC3)ccc(O)c2N1 [Example 123, N-Cyclohexyl-N-(2-(2-(5-hydroxy-3-oxo-3,4-dihydro-2H-benzo[b][1,4]oxazin-8-yl)ethylamino)ethyl)-3-(3-((4-(4,5,6,7-tetrahydro-2H-indazole-3-carbonyl)-1-oxa-4,9-diazaspiro[5.5]undecan-9-yl)methyl)phenethoxy)propanamide]
Adrenergic β2
  percent of formoterol maximum response at 1 µM: 97%
[1]
  inhibition at 1 µM: 99%

## Cc1ccc2[nH]c(C(=O)N3CCOC4(CCN(Cc5cccc(CCOCCC(=O)N(CCNCCc6ccc(O)c7c6OCC(=O)N7)C6CCCCC6)c5)CC4)C3)cc2c1 [Example 136, N-Cyclohexyl-N-(2-(2-(5-hydroxy-3-oxo-3,4-dihydro-2H-benzo[b][1,4]oxazin-8-yl)ethylamino)ethyl)-3-(3-((4-(5-methyl-1H-indole-2-carbonyl)-1-oxa-4,9-diazaspiro[5.5]undecan-9-yl)methyl)phenethoxy)propanamide]
Adrenergic β2
  percent of formoterol maximum response at 1 µM: 92%
[1]
  inhibition at 1 µM: 99%
